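Each compound was tested at five concentrations against cells in 96-well plates for 48 hours. GI50 is the concentration that inhibits growth by half.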 Active and inactive are the calls of the source. Cut-off read from the data, not from the text of the source: active = GI50 up to about 1.1 µM and inactive = higher.
Assays:
Assay in all cases: NCI anticancer screen, dose series, 48 h
UACC-62 = test system: UACC-62
SR = test system: SR
CAKI-1 = test system: CAKI-1
HCC 2998 = test system: HCC 2998
NCI-H522 = test system: NCI-H522
SK-OV-3 = test system: SK-OV-3
NCI-H460 = test system: NCI-H460
SK-MEL-28 = test system: SK-MEL-28
OVCAR-5 = test system: OVCAR-5
EKVX = test system: EKVX
M14 = test system: M14
HCT-15 = test system: HCT-15
OVCAR-3 = test system: OVCAR-3
RPMI-8226 = test system: RPMI-8226
SK-MEL-2 = test system: SK-MEL-2
IGROV-1 = test system: IGROV-1
A498 = test system: A498
NCI-H226 = test system: NCI-H226
DU-145 = test system: DU-145
SNB-75 = test system: SNB-75

Row | SMILES | GI50 (UACC-62) | GI50 (SR) | GI50 (CAKI-1) | GI50 (HCC 2998) | GI50 (NCI-H522) | GI50 (SK-OV-3) | GI50 (NCI-H460) | GI50 (SK-MEL-28) | GI50 (OVCAR-5) | GI50 (EKVX) | GI50 (M14) | GI50 (HCT-15) [µM] | GI50 (OVCAR-3) | GI50 (RPMI-8226) | GI50 (SK-MEL-2) | GI50 (IGROV-1) | GI50 (A498) | GI50 (NCI-H226) | GI50 (DU-145) | GI50 (SNB-75)
1 | CCOC(=O)/C(=C/c1ccc(OC)cc1)N(CC)CC | > 100 µM (inactive) | > 100 µM (inactive) | > 100 µM (inactive) | > 100 µM (inactive) | > 100 µM (inactive) | > 100 µM (inactive) | > 100 µM (inactive) | > 100 µM (inactive) | > 100 µM (inactive) | > 100 µM (inactive) | > 100 µM (inactive) | > 100 | > 100 µM (inactive) | > 100 µM (inactive) | > 100 µM (inactive) | > 100 µM (inactive) | 24.5 µM (inactive) | > 100 µM (inactive) | – | –
2 | COc1cc2c(c(OC)c1O)-c1ccc(OC)c(=O)cc1[C@@H](NC(=O)C(F)(F)F)CC2 | 0.0387 µM (active) | – | 0.405 µM (active) | 0.307 µM (active) | 0.0235 µM (active) | 0.191 µM (active) | 0.207 µM (active) | – | – | 1.53 µM (inactive) | 0.0634 µM (active) | 1.16 | 0.0307 µM (active) | 0.0252 µM (active) | 0.0282 µM (active) | 0.229 µM (active) | 0.327 µM (active) | 0.391 µM (active) | 0.361 µM (active) | –
3 | C=CC[P@]1(=O)O[C@H](c2ccccc2)[C@H](C)N1C | > 100 µM (inactive) | > 100 µM (inactive) | – | > 100 µM (inactive) | – | > 100 µM (inactive) | > 100 µM (inactive) | > 100 µM (inactive) | > 100 µM (inactive) | > 100 µM (inactive) | > 100 µM (inactive) | > 100 | > 100 µM (inactive) | > 100 µM (inactive) | – | > 100 µM (inactive) | > 100 µM (inactive) | > 100 µM (inactive) | – | > 100 µM (inactive)
4 | COc1c(N2CCCCC2)c2c(=O)c3ccccc3oc2c2cc(C)oc12 | 17.8 µM (inactive) | – | 14.1 µM (inactive) | 18.5 µM (inactive) | – | 28.1 µM (inactive) | 7.78 µM (inactive) | 25.4 µM (inactive) | 23.5 µM (inactive) | 25.9 µM (inactive) | 14.8 µM (inactive) | 16.7 | 18.8 µM (inactive) | 5.94 µM (inactive) | 15.9 µM (inactive) | – | 16 µM (inactive) | 13.3 µM (inactive) | 17.9 µM (inactive) | 11.3 µM (inactive)
5 | O=C1C(Sc2ccc3ccccc3c2)=C(Sc2ccc3ccccc3c2)C(=O)c2ccccc21 | 3.24 µM (inactive) | – | – | 5.38 µM (inactive) | 1.97 µM (inactive) | 22.7 µM (inactive) | 7.82 µM (inactive) | 15.2 µM (inactive) | 11.3 µM (inactive) | 10.5 µM (inactive) | 11.5 µM (inactive) | 9.06 | – | – | 5.53 µM (inactive) | – | 14.8 µM (inactive) | 13.9 µM (inactive) | 22 µM (inactive) | 14 µM (inactive)
6 | COc1cc(N(CCC#N)CCC#N)ccc1/C=N\NC(=O)c1ccc(C)cc1 | > 100 µM (inactive) | – | > 100 µM (inactive) | – | > 100 µM (inactive) | > 100 µM (inactive) | > 100 µM (inactive) | > 100 µM (inactive) | > 100 µM (inactive) | > 100 µM (inactive) | > 100 µM (inactive) | > 100 | 75.2 µM (inactive) | – | 17.3 µM (inactive) | > 100 µM (inactive) | – | > 100 µM (inactive) | > 100 µM (inactive) | > 100 µM (inactive)
7 | c1ccc2c(c1)cc(C1NCCc3nc[nH]c31)c1ccccc12 (stereo unspecified) | 22.6 µM (inactive) | 34.3 µM (inactive) | 48.8 µM (inactive) | 15.7 µM (inactive) | 27.7 µM (inactive) | > 100 µM (inactive) | 22.6 µM (inactive) | > 47.6 µM (inactive) | > 74.3 µM (inactive) | > 100 µM (inactive) | 18.5 µM (inactive) | 59.6 | > 61.9 µM (inactive) | 37.6 µM (inactive) | 18.4 µM (inactive) | > 54.6 µM (inactive) | 22.5 µM (inactive) | 27.7 µM (inactive) | – | 32.7 µM (inactive)
8 | [N-]=[N+]=NC(c1cn(C2CC(O)C(CO)O2)c(=O)[nH]c1=O)C(Cl)I (stereo unspecified) | > 100 µM (inactive) | – | – | > 100 µM (inactive) | – | > 100 µM (inactive) | > 100 µM (inactive) | > 100 µM (inactive) | > 100 µM (inactive) | > 100 µM (inactive) | > 100 µM (inactive) | > 100 | > 100 µM (inactive) | > 100 µM (inactive) | > 100 µM (inactive) | > 100 µM (inactive) | > 100 µM (inactive) | > 100 µM (inactive) | > 100 µM (inactive) | 33.3 µM (inactive)
9 | COC(=O)N/N=C(\C)C(CN(C)C)C(c1ccccc1)c1c(O)c2ccccc2oc1=O (stereo unspecified) | > 100 µM (inactive) | > 100 µM (inactive) | > 100 µM (inactive) | > 100 µM (inactive) | 14.2 µM (inactive) | > 100 µM (inactive) | – | > 100 µM (inactive) | > 100 µM (inactive) | > 100 µM (inactive) | > 100 µM (inactive) | > 100 | – | > 100 µM (inactive) | > 100 µM (inactive) | > 100 µM (inactive) | > 100 µM (inactive) | > 100 µM (inactive) | – | > 100 µM (inactive)
10 | C#CCOCn1cnc2ncnc(N)c21 | > 100 µM (inactive) | > 100 µM (inactive) | > 100 µM (inactive) | > 100 µM (inactive) | > 100 µM (inactive) | > 100 µM (inactive) | > 100 µM (inactive) | > 100 µM (inactive) | > 100 µM (inactive) | > 100 µM (inactive) | – | – | > 100 µM (inactive) | > 100 µM (inactive) | > 100 µM (inactive) | > 100 µM (inactive) | > 100 µM (inactive) | > 100 µM (inactive) | – | > 100 µM (inactive)
11 | CSc1ccc(/C=C2\CNC/C(=C\c3ccc(SC)cc3)C2=O)cc1 | > 87.5 µM (inactive) | – | – | – | 56.4 µM (inactive) | 96.8 µM (inactive) | > 119 µM (inactive) | > 209 µM (inactive) | > 284 µM (inactive) | > 170 µM (inactive) | > 206 µM (inactive) | > 179 | 36.8 µM (inactive) | > 79.8 µM (inactive) | > 194 µM (inactive) | > 81.7 µM (inactive) | – | 40.6 µM (inactive) | > 371 µM (inactive) | 15 µM (inactive)
12 | COC(=O)CCC1(C)C2CCC1(C)/C(=N/O)C2 (stereo unspecified) | > 100 µM (inactive) | – | > 100 µM (inactive) | > 100 µM (inactive) | > 100 µM (inactive) | > 100 µM (inactive) | – | > 100 µM (inactive) | > 100 µM (inactive) | > 100 µM (inactive) | > 100 µM (inactive) | > 100 | > 100 µM (inactive) | > 100 µM (inactive) | > 100 µM (inactive) | > 100 µM (inactive) | – | > 100 µM (inactive) | > 100 µM (inactive) | > 100 µM (inactive)
